Experimental data taken from US20100093642A1, “NOVEL POLYPEPTIDES” (priority 2006, published 2010).
Converted amounts (≈) assume the structure as drawn. Read-outs that look alike come from different tables or passages of the source. No end group written: not given here.

Columns and labels:
L. anguillarum = type: cell-based, Listonella (Vibrio) anguillarum; settings: lowest concentration causing optical density less than 50% of growth control
Procedure: (§1) The Gram-negative bacteria Listonella (Vibrio) anguillarum, serotype O2 (FT 1801, also coded as AL 104/LFI 6004), originally isolated from Atlantic salmon by staff of the Norwegian Veterinary Institute (Oslo, Norway), Escherichia con (ATCC 25922), and the Gram-positive bacteria Staphylococcus aureus (ATCC 9144) and Corynebacterium glutamicum (ATCC 13032) were used as test organisms. All isolates were grown at room temperature in Mueller Hinton Broth (MBB; Difco Laboratories, Detroit, U.S.A).
(§2) The antibacterial activities of the obtained HPLC fractions were determined by continuous monitoring of bacterial growth with a Bioscreen C microbiology reader (Labsystems Oy, Helsinki, Finland). The test was performed in 100-well flat-bottomed honeycomb plates, in which […] of test fractions were incubated with 50 μl of a suspension of an actively growing culture of bacteria diluted to a starting concentration of 5×10^3 cells per well. The growth chamber was maintained at 20° C. during the incubation period. The absorbance was measured at 2 h intervals for 48 h by a turbidometric method with vertical light photometry and a wide band filter (420-580 nm), which is more insensitive to colour change in the sample compared to single wavelength detection. Cecropin P1(0.5 μg/ml) was used as a positive control during these experiments. Antibacterial activity was determined when the optical density (OD) of the growth control (bacteria plus water) reached an absorbance of approximately 0.3. Fractions were regarded as active when the OD was less than 50% of the growth control.
(§3) The polypeptides of the present invention were isolated and subsequently tested for activity. A serial dilution method was employed to examine the antibacterial activity of the peptides. Two Gram-negative bacteria, L. anguillarum and E. coli, and two Gram-positive bacteria, C. glutamicum and S. aureus, were chosen as test bacteria. The polypeptides of the present invention were active against both Gram-positive and Gram-negative bacteria (table 4).

S. aureus = type: cell-based, Staphylococcus aureus; settings: lowest concentration causing optical density less than 50% of growth control
Procedure: as §1, §2, §3

E. coli = type: cell-based, Escherichia coli; settings: lowest concentration causing optical density less than 50% of growth control
Procedure: as §1, §2, §3

C. glutamicum = type: cell-based, Corynebacterium glutamicum; settings: lowest concentration causing optical density less than 50% of growth control
Procedure: as §1, §2, §3

Pseudomonas K15-60 = type: cell-based; settings: clinical isolate; 37° C.; 3×10^6 cells per ml
Procedure: (§4) The antibacterial activities of the different peptides were determined by continuous monitoring of bacterial growth with a Bioscreen C microbiology reader (Labsystems Oy, Helsinki, Finland). The test was performed in 100-well flat-bottomed honeycomb plates, in which 50 μl of test fractions were incubated with 50 μl of a suspension of an actively growing culture of bacteria diluted in Mueller Hinton medium to a starting concentration of 3×10^4 cells per ml. The Gram-negative bacteria, Listonella (Vibrio) anguillarum, serotype O2 (FT 1801, a fish pathogenic strain), Pseudomonas aeruginosa and E. coli (ATCC 25922), and the Gram-positive bacteria, C. glutamicum (ATCC 13032) and S. aureus (ATCC 9144), were chosen as test bacteria. The growth chamber was maintained at either 20 or 37° C. during the incubation period. The absorbance was measured at 2 h intervals for 48 h by a turbidometric method with vertical light photometry and a wide band filter (420-580 nm), which is more insensitive to color change in the sample compared to single wavelength detection. Antibacterial activity was determined when the optical density (OD) of the growth control (bacteria plus water) reached an absorbance of 0.3-0.4. Fractions were regarded as active when the OD was less than 50% of the growth control. Polymyxin B (Sigma, St. Louis, Mo., USA), Lactoferricin B, Cecropin P1 and Hyalophora cecropia Cecropin B were used as reference.
(§5) The antimicrobial molecules were also tested against drug resistant clinical isolates, such as the commonly encountered multi-resistant human pathogen S. aureus (MRSA) K15-64 and the glycopeptide (vancomycin)-resistant Enterococccus faecium (GREF) K9-28. The non-clinical isolates Escherichia coli (ATCC 25922), Pseudomonas aeruginosa (ATCC 27853), Corynebacterium glutamicum (ATCC 13032), and Staphylococcus aureus (ATCC 9144) were also tested for comparison. Serial dilutions of synthetic peptides were made in double distilled water and tested according to the method described above. However, in these experiments the starting concentration of bacteria were 3×10^6 cells per ml and the temperature in the growth chamber was 37° C. Polymyxin B was used as positive control for the Gram-negative bacteria.

Escherichia coli, K15-58 = type: cell-based; settings: clinical isolate; 37° C.; 3×10^6 cells per ml
Procedure: as §4, §5

[1] = tested on: Citrobacter freundii, K15-75; type: cell-based; settings: clinical isolate; 37° C.; 3×10^6 cells per ml
Procedure: as §4, §5

Salmonella K14-40 = type: cell-based; settings: clinical isolate; 37° C.; 3×10^6 cells per ml
Procedure: as §4, §5

Klebsiella K15-72 = type: cell-based; settings: clinical isolate; 37° C.; 3×10^6 cells per ml
Procedure: as §4, §5

[2] = tested on: Acinetobacter baumannilii, K15-9; type: cell-based; settings: clinical isolate; 37° C.; 3×10^6 cells per ml
Procedure: as §4, §5

[3] = tested on: human embryonic lung fibroblast cell line MRC-5; type: cell-based; settings: normal fibroblasts, 24 hours, maximum 200 μg/ml
Procedure: (§6) The cytotoxic effects of the peptides on different human tumour cells were measured using the MTT colorimetric assay (Mosmann, 1983). […] Dissolved MIT is converted to an insoluble purple formazan by cleavage of the tetrazolium ring by dehydrogenase enzymes. This water insoluble formazan can be solubilized using isopropanol or other solvents and the dissolved material is measured spectrophotometrically. The absorbance was measured as a function of concentration of converted dye. The conversion of the soluble dye to the insoluble purple formazan is utilized in assays for measurement of cell proliferation. […] We used this assay to measure the degree of cell death caused by the peptides. MCF-7 was maintained in EMEM, A2058 in DMEM and […]-29 in RPMI-1640 medium supplemented with 10% heat inactivated […] and 1% L-glutamine-L-alanine in a humidified atmosphere of 5% CO2 at 37° C. The human embryonic fibroblast cell line, MRC-5 (which is normal fibroblasts), was cultured as a monolayer in MEM medium, under the same conditions as described for the tumour cell lines. Cells to be used in the assay were grown to a minimum of 75% confluency, trypsinated and split to single cell suspension, counted and centrifuged at 1500 rpm for 10 min. The cell pellet was resuspended to a concentration of 2×10^5 cells/ml (HT-29) or 1×10^5 (MRC-5, MCF7 and A2058) in DMEM without FBS and L-glutamine-L-alanine (assay-medium). All cell lines were routinely tested for mycoplasma infection using a PCR-based mycoplasma detection kit (MycoSensor PCR Assay Kit, Stratagene), following the supplier's instructions. All cell lines were mycoplasma free. The cytotoxicity was measured using the MTT method (Mosmann, 1983), with minor modifications. Different human tumour cells (1-2×10^5) were applied in 96-well culture plates in a volume of 100 μl DMEM medium and incubated at 37° C. for 24 hours. The medium was removed and the cells were treated with 100 μl of peptide solution (concentrations ranging from 0 to 200 μg/ml), diluted in a) RPMI-1640 medium supplemented with 5% heat inactivated FBS, or b) RPMI-1640 medium without FBS. The plates were incubated at 37° C. for 24 hours. Cells treated with Triton X-100 (1%) was used as positive control (100% killing) whereas cells plus medium only were used as negative control. […] A volume of 70 μl of the supernatant was then removed and […] (0.04 M HCl in isopropanol) added to each well. The plate was placed on a shaker for 1 hour at room temperature and read spectrophotometrically at 590 nm in a microtiter plate reader (DTX880 Multimode Detector, Beckman Coulter).

[4] = tested on: human breast malignant carcinoma cell line MCF-7; type: cell-based; settings: 24 hours, maximum 200 μg/ml
Procedure: as §6

[5] = tested on: human colorectal adenocarcinoma cell line HT-29; type: cell-based; settings: 24 hours, maximum 200 μg/ml
Procedure: as §6

[6] = tested on: human skin malignant melanoma cell line A2058; type: cell-based; settings: 24 hours, maximum 200 μg/ml
Procedure: as §6

[7] = RPMI-1640 medium containing 5% FBS

Molecule	Minimal inhibitory concentration (MIC), L. anguillarum (L. anguillarum) [µM]	Minimal inhibitory concentration (MIC), S. aureus (S. aureus) [µM]	Minimal inhibitory concentration (MIC), E. coli (E. coli) [µM]	Minimal inhibitory concentration (MIC), C. glutamicum (C. glutamicum) [µM]	Minimal inhibitory concentration, Pseudomonas K15-60 (Pseudomonas K15-60) [µM]	Minimal inhibitory concentration, Escherichia coli, K15-58 (Escherichia coli, K15-58) [µM]	Minimal inhibitory concentration, Citrobacter freundii, K15-75 [1] [µM]	Minimal inhibitory concentration, Salmonella K14-40 (Salmonella K14-40) [µM]	Minimal inhibitory concentration, Klebsiella K15-72 (Klebsiella K15-72) [µM]	Minimal inhibitory concentration, Acinetobacter baumannilii, K15-9 [2] [µM]	IC50, MRC-5 [3, 7]	IC50, MRC-5 ([3]; serum-free RPMI-1640 medium)	Antitumoral activity IC50, MCF-7 [4, 7]	Antitumoral activity IC50, MCF-7 ([4]; serum-free RPMI-1640 medium)	Antitumoral activity IC50, HT-29 [5, 7]	Antitumoral activity IC50, HT-29 ([5]; serum-free RPMI-1640 medium)	Antitumoral activity IC50, A2058 [6, 7]	Antitumoral activity IC50, A2058 ([6]; serum-free RPMI-1640 medium)
CC[C@H](C)[C@@H]1NC(=O)[C@H](CO)NC(=O)[C@@H]2CCCN2C(=O)[C@H](C)NC(=O)CNC(=O)[C@H](CC(C)C)NC(=O)[C@H](CCCCN)NC(=O)[C@H](CCCCN)NC(=O)[C@H](CCSC)NC(=O)[C@H](CCCNC(=N)N)NC(=O)[C@H](Cc2c[nH]c3ccccc23)NC(=O)[C@H](CCC(N)=O)NC(=O)[C@H](Cc2c[nH]c3ccccc23)NC(=O)[C@H](CCCNC(=N)N)NC(=O)[C@H](CCCNC(=N)N)NC(=O)[C@@H](NC(=O)[C@H](CCCCN)NC(=O)[C@@H](N)Cc2ccccc2)CSSC[C@@H](C(=O)N[C@H](C(=O)N[C@@H](CCCNC(=N)N)C(=O)N[C@@H](CCCNC(=N)N)C(=O)N[C@@H](C)C(=O)N[C@@H](Cc2ccccc2)C(=O)O)C(C)C)NC(=O)[C@H]([C@@H](C)O)NC1=O [Lactoferricin B]	3.1 (≈ 9.68 µg/mL)	6.3 (≈ 19.7 µg/mL)	3.1 (≈ 9.68 µg/mL)	1.6 (≈ 5 µg/mL)														
Polymyxin B [reference compound]	0.8	6.3	0.8	1.6	3.12	3.12	0.78	3.12	6.25	0.78								
P20: dimeric polypeptide from S. droebachiensis coelomocytes: first monomer SEQIDNO7, second monomer SEQIDNO8 (chain 1 SXFSRTVHNVGNAVRKGIHAGQGVCSGLGL; chain 2 DLRAICAGAHAL; not fully specified (bridges); X: residue not identified in the source; cysteine pairing not given here; also: heterodimer of two chains; listed as Strongylocentrotus droebachiensis) [Peptide P20]	2.5	5.0	2.5	1.3														
NC(Cc1c[nH]c2ccc(Br)cc12)C(=O)O [5-D/L-Br-Trp, 5-Bromo-D/L-tryptophan, reference compound]											* (The symbol “*” denotes 30-50% killing at the highest concentration tested.)	* (The symbol “*” denotes 30-50% killing at the highest concentration tested.)	— (The symbol “—” denotes no activity within the concentration range tested.)	— (The symbol “—” denotes no activity within the concentration range tested.)	— (The symbol “—” denotes no activity within the concentration range tested.)	* (The symbol “*” denotes 30-50% killing at the highest concentration tested.)	— (The symbol “—” denotes no activity within the concentration range tested.)	— (The symbol “—” denotes no activity within the concentration range tested.)
